Source: US5109025A, “Therapeutic agent for penal disorders” (Dainippon Ink and Chemicals, Inc., priority 1988, dated 1992)
Counter-ions that a name gives are not always drawn.

Assays:
[1] = tested on: hydrochloric acid-ethanol-induced ulcer; assay: Antiulcer activity: HCl-ethanol ulcer model test; type: in vivo, SD male rats; details: for Inhibition Ratio (ulcer) / Ulcer Index: Dose 100 (unit not given), oral, n = 5 rats; for Ulcer Index: **: P < 0.01 vs control group (46.7 ± 34.6)
Protocol: Antiulcer activity was tested using hydrochloric acid-ethanol-induced ulcer model test which is widely used for evaluating the effectiveness of antiulcer drugs.
A group of five SD male rats each weighing from 200 to 250 g were starved for 24 hours, and then administered orally with 1.0 ml/200 g of 150 mM hydrochloric acid-60% ethanol. After 1 hour, the animals were sacrificed with ether, and the stomach was taken out from each animal. After pouring 10 ml of physiological saline in each of them the stomachs were dipped in 1% formalin solution for 10 minutes to fix them. Each of the stomachs was incised along the greater curvature (curvatura ventriculi major) and the lengths of mucosal ulcers which appeared in the gastric gland portion were measured under microscope (×10). The sum of the lengths per animal was calculated and defined as ulcer index. Test drugs were administered orally in a dose of 1,0 ml/200 g after 10 minutes from the induction of stress. Cetraxate hydrochloride known as antiulcer drug was used as positive comparative compound.

[2] = tested on: mast cells; assay: Antiallergic activity: inhibition of histamine liberation from mast cells by Compound 48/80; type: cell-based, rat; details: for Liberation Ratio of Histamine / inhibition at 30 µM: 0.03 mM, Compound 48/80-induced; for Liberation Ratio of Histamine: control 82.4, blank 3.4; for inhibition at 30 µM: Rattus norvegicus, Mast cell, read-out: Inhibition Ratio (histamine liberation)
Protocol: Locke's solution (10 ml) containing 0.1% by weight of bovine serum albumin was injected into the abdominal cavity of a rat which had been sacrificed by exsanguination. The rat was lightly massaged, then subjected to an abdominal section so that an abdominal solution was collected. The abdominal cavity was also washed with 5 ml of the same solution and the washing solution was collected and mixed with the above abdominal solution. The abdominal solution was centrifuged at 500 rpm for 5 minutes, then 5 ml of cool Locke's solution was added to the sediment. After the sediment had been washed, 3 ml of cool Locke's solution was again added thereto to form a solution of rat peritoneal exudation cells.
Locke's solution (0.5 ml) and 1.0 ml of THC or isoliquiritigenin solution prepared in a concentration of 0.03 mM (THC or isoliquiritigenin was dissolved in a physiological saline solution containing 1% sodium bicarbonate, the resultant solution being diluted with Locke's solution) was added to 0.3 ml of the solution of rat peritoneal exudation cells obtained in (1) above and were incubated at 37° C. for 5 minutes. Then, 0.2 ml each of a Lock's solution of Compound 48/80 (1 mg/100 ml) was added to the solution and the mixture was incubated at 37° C. for 10 minutes. After the reaction was stopped by cooling, the obtained solution was centrifuged at 2,500 rpm for 10 minutes to separate into 1.7 ml of supernatant and 0.3 ml of sediment. Water (0.1 ml) and 0.2 ml of 100% trichloroacetic acid were added to the supernatant, and 1.5 ml of Locke's solution and the 100% trichloroacetic acid were added to the sediment which was then allowed to stand for 30 minutes at room temperature and was centrifuged at 3000 rpm for 15 minutes. A portion (0.35 ml) of each of the supernatant and the supernatant of the sediment was taken and 1.65 ml of water and 0.4 ml of 1N sodium hydroxide were added in turn to each of the supernatants. 0.5% OPT (orthophthalaldehyde) methanol solution (0.1 ml) was added to each of the resultant solutions which were then allowed to react at room temperature for 4 minutes. After the reaction was stopped by the addition of 0.2 ml of 2M citric acid, the fluorescence of each of the reaction solutions was measured by a fluorophotometer.
As a control, Locke's solution was added instead of the solution of THC and, as a blank, the Locke's solution was added instead of THC and Compound 48/80, the other operations being the same as those described above.
The inhibition ratio of THC or isoliquiritigenin for the liberation of histamine by Compound 48/80 is calculated from the following equations: [formula] Ps: Amount of free histamines (in the supernatant) Pr: Amount of remaining histamines (in the sediment) [formula] I: Value of A of THC or isoliquiritigenin C: Value of A of the control
B: Value of A of the blank

[3] = tested on: kidney injury induced by cis-platinum; assay: Cis-platinum-induced kidney injury model test; type: in vivo, ddy male mice; details: for Blood Urea Nitrogen: 100 mg/kg/day oral, 5 days before and 5 days after 17 mg/kg s.c. cis-platinum, serum, mice, **: P < 0.01, *: P < 0.05 vs cis-platinum group (114.7 ± 18.4)
Protocol: In this example, tests were conducted to examine the therapeutical activity of THC against kidney injury induced by cis-platinum (cis-DDP) which is an anti-cancer drug and is known to have a very strong effect of inducing functional disorders of the kidney.
A group of ten ddy male mice each weighing from 20 to 25 g were orally administered with 100 mg/kg/day of THC or isoliquiritigenin (positive comparative compound) for 5 continuous days, subcutaneously injected with 17 mg/kg of cis-platinum once on the fifth day, and were treated moreover for 5 continuous days orally administered with THC or isoliquiritigenin in the same manner as above. Thereafter, blood samples were collected, and blood urea nitrogen (BUN) in the serum was measured.
In the test, a group of ten non-treated ddy male mice each weighing from 20 to 25 g were subcutaneously administered once with 17 mg/kg of cis-platinum only. This group was used as control.
For the measurement of blood urea nitrogen, there was used Urea NB-Test Wako (produced by Wako Pure Chemical Industry Co., Ltd.).

[4] = tested on: ddy mice; assay: Toxicity test: minimum lethal dose; type: in vivo; details: 5-week old male ddy mice
Protocol: In this example, tests were conducted to confirm the safety of THC, which is the active ingredient of the drug of the present invention.
THC was administered by oral administration or intraperitoneal injection to five 5-week old male ddy mice.

[5] = tested on: carragheenin-induced paw edema; assay: Antiinflammatory activity: carragheenin-induced paw edema; type: in vivo, SD male rat; details: 300 mg/kg, oral, 60 minutes before carragheenin; rat
Protocol: The antiinflammatory activity of THC was tested by using carragheenin-induced paw edema method widely used for the evaluation of the effectiveness of general antiinflammatory drugs (NSAID).
A 1%-λ-carragheenin physiological saline solution (0.1 ml) was subcutaneously injected to the right paw of an SD male rat weighing from 200 to 250 g, and the volume of paw was measured after 30, 60, 90, 120, 180 and 300 minutes, respectively. The test drug (THC) had been administered orally in a dosage of 1.0 ml/200 g 60 minutes before the administration of carragheenin. The control group was administered orally with the solvent only in the same dosage. Edema ratio was calculated according to the following equation.
Edema Ratio=[(Ps-P0)/P0 ]×100
where Ps stands for value measured at a point in time after elapse of a predetermined time, and P0 value indicates a value measured at 0 minute after the administration.

[6] = compared with isoliquiritigenin

With `NC[C@H]1CC[C@H](C(=O)Oc2ccc(CCC(=O)O)cc2)CC1` [Cetraxate hydrochloride, reference compound] the “Inhibition Ratio (ulcer)” value [1] was 75.7 and the “Ulcer Index” value [1] was 11.2 ± 20.0.
`O=C(/C=C/c1ccc(O)cc1)c1ccc(O)cc1O` [isoliquiritigenin, reference compound] was tested, and the “Liberation Ratio of Histamine” value [2] was 71.2%, the inhibition at 30 µM [2] was 14.2% and the “Blood Urea Nitrogen” value [3] was 70.6 ± 14.0.
`O=C(/C=C/c1ccc(O)c(O)c1)c1ccc(O)cc1O` [THC, 2',3,4,4'-tetrahydroxychalcone] was tested, and the “Liberation Ratio of Histamine” value [2] was 10.4%, the inhibition at 30 µM [2] was 91.1% and the “inhibition effect on histamine liberation from rat mast cells caused by Compound 48/80 (in words)” value [2, 6] was “more potent than isoliquiritigenin”. The minimum lethal dose ([4]; intraperitoneal injection) was “not less than 1,000 mg/kg”, the minimum lethal dose ([4]; oral administration) was “not less than 3,000 mg/kg” and the “Blood Urea Nitrogen” value [3] was 47.1 ± 12.6. The “suppression of the increase in blood urea nitrogen due to kidney injury induced by cis-platinum (in words)” value [3, 6] was “more potently than isoliquiritigenin”, the “inhibitory effect against carragheenin-induced edema” value [5] was “marked inhibitory effect” and the “Inhibition Ratio (ulcer)” value [1] was 97.3. For the same molecule, the “Ulcer Index” value [1] was 1.2 ± 2.5 and the “inhibitory activity against hydrochloric acid-ethanol-induced ulcer (in words)” value ([1]; rat) was “remarkable inhibitory activity”.
